According to US8754217B2, “Nalmefene hydrochloride dihydrate” (H. Lundbeck A/S, priority 2008, dated 2014):
Counter-ions that a name gives are not always drawn.

Columns and labels:
[1] = Solubility in aqueous solutions; assay type: physicochemical
Excerpt: To recover any unused Nalmefene hydrochloride from the methods I or II, outlined above, a method for the recovery has been developed that comprises • (i) optionally, distillation of mother liquors obtained from method (I) or (II) • (ii) basification of the mother liquors obtained in step (i), or from the methods (I) or (II), • (iii) extracting the mixture with a suitable organic solvent, • (iv) adding hydrogen chloride, and • (v) isolating the formed solid

[2] = Particle size by Laser Diffraction (Malvern Mastersizer S); assay type: physicochemical; conditions: Example 3 batch, mineral oil as dispergent
Procedure: In the present context, particle sizes are determined by Laser Diffraction using a Malvern Mastersizer S instrument as disclosed in details in the introductory part of the experimental section.
In the present context, particle sizes are determined by Laser Diffraction using a Malvern Mastersizer S instrument made up of a laser transmitter (LASER HELIUM-NEON-wavelength 632 nm), an optical system (300 F lens, range 0.5-900 μm), a measurement cell for suspension (beam length 2.4 mm) and a photodiode detector. The sample is analysed using mineral oil (CAS 8042-47) as dispergent.
The particle size of the so obtained Nalmefene hydrochloride dihydrate was determined by Laser Diffraction using a Malvern Mastersizer S instrument.

[3] = DVS (Dynamic Vapour Sorption) experiments, hygroscopicity; assay type: physicochemical
Procedure: As shown in Example 1 of the present invention, DVS (Dynamic Vapour Sorption) experiments were performed at 25° C. and at 40° C. […] In contrast hereto, as shown in Example 2, Nalmefene hydrochloride as monohydrate absorbed about 2.5% water when exposed to 95% RH and 40° C.
DVS experiments were performed at 25° C. and at 40° C. The dihydrate is retained at relative humidity of 10-95%. Adsorption to the surface at high relative humidity is less than 0.2%. Desorption of the crystal water occurs slowly under 10% RH.
DVS experiments were performed at 25° C. and at 40° C. The shape of the curves was the same, only the curve at 40° C. is shown (FIG. 5).
Most of the water of hydration (4%) was absorbed at 10% RH. […] The amounts here are given as % weigh increase relative to dry, thus the weight gain corresponding to monohydrate was 4.8% and a 1.5 hydrate corresponds to a gain of 7.2%.

[4] = Brittain, Analytical Profiles of Drug Substances and Excipients (1996); cited from earlier work

SMILES: C=C1CC[C@@]2(O)[C@H]3Cc4ccc(O)c5c4[C@@]2(CCN3CC2CC2)[C@H]1O5 [Nalmefene hydrochloride, 17-(cyclopropylmethyl)-4,5-α-epoxy-6-methylenemorphinan-3,14-diol hydrochloride]
- solubility in aqueous solutions such as water [1]: highly soluble

SMILES: C=C1CC[C@@]2(O)[C@H]3Cc4ccc(O)c5c4[C@@]2(CCN3CC2CC2)[C@H]1O5 [Nalmefene hydrochloride dihydrate]
- particle size D10 [2]: 14 μm
- particle size D50 [2]: 122 μm
- particle size D90 [2]: 287 μm
- relative humidity at which the hydrate is retained ([3]; DVS at 25° C. and 40° C.): 10-95%
- relative humidity under which desorption of the crystal water occurs slowly ([3]; DVS at 25° C. and 40° C.): under 10 % RH
- adsorption to the surface at high relative humidity ([3]; DVS at 25° C. and 40° C., high relative humidity): less than 0.2%
- water absorbed at 95% RH ([3]; DVS at 25° C. and at 40° C., 95% RH): no water was absorbed
- rehydration after drying at 0% RH ([3]; DVS-curve, crystal lattice retained): complete rehydration
- hygroscopicity (in words) ([3]; hydrochloride dihydrate): non-hygroscopic

SMILES: C=C1CC[C@@]2(O)[C@H]3Cc4ccc(O)c5c4[C@@]2(CCN3CC2CC2)[C@H]1O5 [Nalmefene hydrochloride monohydrate]
- adventitious moisture sorbed [4]: up to 1%
- water absorbed when exposed to 95% RH and 40° C. ([3]; 95% RH, 40° C.): about 2.5%
- weight increase relative to dry at 10% RH ([3]; DVS, 10% RH): 4%
- weight increase relative to dry at 50% RH ([3]; DVS, 50% RH): 4.3%
- weight increase relative to dry at 60% RH ([3]; DVS, 60% RH): 6.9%
- weight increase relative to dry at 95% RH ([3]; DVS, 95% RH): 7.3%
- RH above which the form changed into a new structure with higher water content ([3]; DVS, Example 2): above 50%
- hygroscopicity (in words) ([3]; listed as Nalmefene hydrochloride as a monohydrate, hydrochloride monohydrate): hygroscopic
